{"source": "PubChem BioAssay (NCI)", "system": "P388/ADR leukemia", "assay": "NCI tumour cell line growth inhibition, 48 h", "note": "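Method: 48-hour compound exposure of cells in 96-well plates, five concentrations, linear interpolation of endpoints. TGI: total growth inhibition.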", "data": [{"smiles": "C[C@H](N)C(=O)N[C@@H]1[C@H]2C(=C(O)C[C@@H](O)[C@@H]2O)C(=O)O[C@]1(C)C(Cl)Cl", "values": [{"measurement": "TGI", "result": 2.1, "unit": "µM"}]}]}
